Measurements from article PMC3463753 (Molecular pharmaceutics, 2012).

Tested on: MDCK-WT, MDCK-CYP3A4 and MDCK-MDR1-CYP3A4 cells
Experiment: Mannitol
Type: in vitro ADME, dog
Conditions: paracellular marker; data not shown

Mannitol transport in MDCK-WT, MDCK-CYP3A4 and MDCK-MDR1-CYP3A4 cells: No significant difference
Structure (SMILES): OC[C@@H](O)[C@@H](O)[C@H](O)[C@H](O)CO [mannitol]
